From patent US20040191297A1, “Carotenoid formulation” (priority 1997, published 2004)
Several values for one entry are separate records, joined by “and”; a condition that tells them apart may be missing. Identical values can stand only once.

Key:
[1] = Fecal lycopene analysis (24 hour fecal pellets); assay type: in vivo, rat; settings: for Fecal lycopene: male rat, 744 μg/g in diet
Protocol: Prior to termination, 3 animals from each group were placed in metabolic cages and 24-hour urine and fecal collections made for subsequent lycopene assay. Blood was collected by heart puncture under anesthesia for lycopene assay and all animals were sacrificed by CO2 anesthesia. Blood and feces were stored at −20° C. At necropsy, all major organ systems were grossly inspected. Any unusual appearing tissues were placed in formalin and saved for later histological examination.
(§1) Extraction of lycopene from diet was as follows: A sample of diet containing lycopene was suspended in the injection solvent (Table 4) and homogenized in a polytron homogenizer. Echinenone was added as an internal standard and the mixture centrifuged at 3000 rpm at 4° C. for 15 minutes. The supernatant was decanted and saved and the extraction repeated. The pooled extracts were then dried under N2 gas at 60° C. and the residue dissolved in 0.5 ml injection solvent and then subjected to HPLC analysis. The same method, with minor variations, was used for feces and for lung tissue. The efficiency of lycopene extraction from the diet is shown in Table 6 A&B. At any concentration tested the efficiency ranged from 75% at the highest concentration to 100% for the lowest concentration of lycopene.
The possibility that some lycopene decomposed upon storage prior to extraction must also be considered. […] This, no doubt, is due to the presence of water in the fecal pellet and to the geometry of the pellet. Once freeze-dried, the fecal pellet can easily be powdered, permitting easier access of the solvent to the fecal matrix.

[2] = Concentration of lycopene in rat lung; assay type: in vivo, Fischer 344 rats
Protocol: as §1
(§2) homogenized. […] This hexane extraction procedure was repeated 5-7 times.

retinol = assay: Liver vitamin A assay; assay type: in vivo, Fischer 344 rats; settings: male
[3] = Lycopene content of rat mammary gland; assay type: in vivo, Fischer 344 rats; settings: female
Description: as §2

glutathione = assay: Total glutathione assays of blood, liver and kidney; assay type: in vivo, Fischer 344 rats
Description: The rationale for measuring glutathione is that the reduced form of the tripeptide thiol, glutathione (Glu-Cys-Gly), participates directly in several key intracellular reactions, including protection against free radical damage. In contrast to carotenoids, which reside in the lipid phase, glutathione is found in the aqueous phase of the cell and there is evidence that lipid and aqueous phase anti-oxidants may interact with one another in such a manner that high levels of one may “spare” or limit the deletion of the other. Total (reduced and oxidized) glutathione assays of blood, liver and kidney (Tables 20-22) were conducted.
The determination of glutathione was by HPLC with dual electrochemical detection (see Kleinman, W. A. & Richie, J. P., J. Chromatogr B 672:73-80, 1995). only 1 case, at the highest lycopene level, was there a significant increase in glutathione levels and this occurred only in the liver.

α-tocopherol = assay: Liver vitamin E assay; assay type: in vivo, Fischer 344 rats
[4] = lyophilization + organic extraction
[5] = female rat, Group 1, 1280 in diet
[6] = female rat, Group 2, 512 in diet
[7] = female rat, Group 3, 256 in diet
[8] = female rat, Group 4, 128 in diet
[9] = female rat, Group 5, 51 in diet
[10] = male rat, Group 1, 1280 in diet

## CC(C)=CCC/C(C)=C/C=C/C(C)=C/C=C/C(C)=C/C=C/C=C(C)/C=C/C=C(C)/C=C/C=C(\C)CCC=C(C)C [Lycopene]
[1]; [4]
  24 hr fecal lycopene: 5,406 μg
  Fecal lycopene: 3,754 μg/g
[1]; organic extraction
  Fecal lycopene: 2,992 μg/g
  24 hr fecal lycopene: 4,309 μg
  % Efficiency (fecal output/input): 44%
[2]; [5]
  Concentration of lycopene in lung, average: 227 ngs/gm
  Concentration of lycopene in lung, individual: 184 ngs/gm and 270 ngs/gm
[2]; [6]
  Concentration of lycopene in lung, average: 246 ngs/gm
  Concentration of lycopene in lung, individual: 211 ngs/gm and 280 ngs/gm
[2]; [7]
  Concentration of lycopene in lung, average: 193 ngs/gm
  Concentration of lycopene in lung, individual: 243 ngs/gm and 142 ngs/gm
[2]; [8]
  Concentration of lycopene in lung, average: 211 ngs/gm
  Concentration of lycopene in lung, individual: 208 ngs/gm and 214 ngs/gm
[2]; [9]
  Concentration of lycopene in lung, average: 134 ngs/gm
  Concentration of lycopene in lung, individual: 144 ngs/gm and 124 ngs/gm
[2]; [10]
  Concentration of lycopene in lung, average: 190 ngs/g
  Concentration of lycopene in lung, individual: 193 ngs/g and 187 ngs/g
[2]; male rat, Group 2, 512 in diet
  Concentration of lycopene in lung, average: 214 ngs/g
  Concentration of lycopene in lung, individual: 170 ngs/g and 257 ngs/g
[2]; male rat, Group 3, 256 in diet
  Concentration of lycopene in lung, average: 375 ngs/g
  Concentration of lycopene in lung, individual: 325 ngs/g and 424 ngs/g
[2]; male rat, Group 4, 128 in diet
  Concentration of lycopene in lung, average: 201 ngs/g
  Concentration of lycopene in lung, individual: 239 ngs/g and 162 ngs/g
[2]; male rat, Group 5, 51 in diet
  Concentration of lycopene in lung, average: 151 ngs/g
  Concentration of lycopene in lung, individual: 167 ngs/g and 135 ngs/g
retinol; Group 7, lycopene 1280 mg/kg diet
  Liver retinol: 388 μg/gm
retinol; Group 8, lycopene 512 mg/kg diet
  Liver retinol: 119 μg/gm
retinol; Group 9, lycopene 256 mg/kg diet
  Liver retinol: 584 μg/gm
retinol; Group 11, lycopene 51 mg/kg diet
  Liver retinol: 454 μg/gm
[3]; Group 1 (1280 mg/kg diet)
  Lycopene content of mammary gland, Median: 235 ng/g
  Lycopene content of mammary gland, Range: 232 to 460 ng/g
  Lycopene content of mammary gland, mean ± SD: 309 ± 131 ng/g
[3]; Group 2 (512 mg/kg diet)
  Lycopene content of mammary gland, Median: 197 ng/g
  Lycopene content of mammary gland, Range: 172 to 231 ng/g
  Lycopene content of mammary gland, mean ± SD: 200 ± 030 ng/g
[3]; Group 3 (256 mg/kg diet)
  Lycopene content of mammary gland, Median: 220 ng/g
  Lycopene content of mammary gland, Range: 139 to 282 ng/g
  Lycopene content of mammary gland, mean ± SD: 215 ± 062 ng/g
[3]; Group 4 (128 mg/kg diet)
  Lycopene content of mammary gland, Median: 217 ng/g
  Lycopene content of mammary gland, Range: 181 to 288 ng/g
  Lycopene content of mammary gland, mean ± SD: 229 ± 054 ng/g
[3]; Group 5 (51 mg/kg diet)
  Lycopene content of mammary gland, Median: 143 ng/g
  Lycopene content of mammary gland, Range: 139 to 239 ng/g
  Lycopene content of mammary gland, mean ± SD: 174 ± 057 ng/g
glutathione; female, lycopene 51 ppm
  Kidney glutathione: 0.900 ± 0.101^ μmol/g
  Liver glutathione: 6.01 ± 0.309 µmol/g
  Whole blood glutathione: 0.832 ± 0.158^+ μmol/g
glutathione; female, lycopene 128 ppm
  Kidney glutathione: 0.950 ± 0.0758^ μmol/g
  Liver glutathione: 6.54 ± 1.09^+ μmol/g
  Whole blood glutathione: 0.890 ± 0.202 µmol/g
glutathione; female, lycopene 256 ppm
  Kidney glutathione: 1.030 ± 0.414^+ μmol/g
  Liver glutathione: 4.87 ± 1.14 µmol/g
  Whole blood glutathione: 0.848 ± 0.0988 µmol/g
glutathione; female, lycopene 512 ppm
  Kidney glutathione: 1.090 ± 0.163^+ μmol/g
  Liver glutathione: 5.88 ± 0.492 µmol/g
  Whole blood glutathione: 0.930 ± 0.123 µmol/g
glutathione; female, lycopene 1280 ppm
  Kidney glutathione: 0.089 ± 0.045^+ μmol/g
  Liver glutathione: 7.38 ± 0.705^+ μmol/g
  Whole blood glutathione: 1.080 ± 0.104 µmol/g
glutathione; liver, kidney or whole blood
  dose-related changes in glutathione: No dose-related changes
glutathione; male, lycopene 51 ppm
  Kidney glutathione: 0.688 ± 0.316 µmol/g
  Liver glutathione: 6.77 ± 1.53 µmol/g
  Whole blood glutathione: 1.030 ± 0.0387 µmol/g
glutathione; male, lycopene 128 ppm
  Kidney glutathione: 0.686 ± 0.170 µmol/g
  Liver glutathione: 5.38 ± 0.363 µmol/g
  Whole blood glutathione: 0.920 ± 0.169 µmol/g
glutathione; male, lycopene 256 ppm
  Kidney glutathione: 0.624 ± 0.104 µmol/g
  Liver glutathione: 4.59 ± 1.37 µmol/g
  Whole blood glutathione: 0.910 ± 0.106 µmol/g
glutathione; male, lycopene 512 ppm
  Kidney glutathione: 0.854 ± 0.055^+ μmol/g
  Whole blood glutathione: 0.990 ± 0.141 µmol/g
glutathione; male, lycopene 1280 ppm
  Kidney glutathione: 0.828 ± 0.128^+ μmol/g
  Liver glutathione: 7.16 ± 1.95^+ μmol/g
  Whole blood glutathione: 0.948 ± 0.294 µmol/g
α-tocopherol; female, Group 2, lycopene 512 mg/kg diet
  Liver α-tocopherol: 38 μg/gm
α-tocopherol; male, Group 7, lycopene 1280 mg/kg diet
  Liver α-tocopherol: 28 μg/gm
α-tocopherol; male, Group 8, lycopene 512 mg/kg diet
  Liver α-tocopherol: 8 μg/gm
α-tocopherol; male, Group 9, lycopene 256 mg/kg diet
  Liver α-tocopherol: 23 μg/gm
α-tocopherol; male, Group 11, lycopene 51 mg/kg diet
  Liver α-tocopherol: 14 μg/gm
